From patent US20150284394A1, “INHIBITORS OF BRUTON'S TYROSINE KINASE” (HOFFMANN-LA ROCHE INC., priority 2012, published 2015)

Legend:
Bruton's Tyrosine Kinase = Bruton's Tyrosine Kinase (Homo sapiens, UniProt Q06187); test: Bruton's Tyrosine Kinase (BTK) Inhibition TR-FRET competition assay; assay type: binding; conditions: inactivated state of BTK; Kinase Tracer 178; 18-24 h at 14° C
Description: This BTK competition assay measures compound potency (IC50) for the inactivated state of Bruton's Tyrosine Kinase using FRET (Forster/Fluorescence Resonance Energy Transfer) technology. The BTK-Eu complex was incubated on ice one hour prior to use at a starting concentration of 50 nM BTK-Bioease™: 10 nM Eu-streptavidin (Perkin-Elmer Catalog# AD0062). The assay buffer consisted of 20 mM HEPES (pH 7.15), 0.1 mM DTT, 10 mM MgCl2, 0.5 mg/ml BSA with 3% Kinase Stabilizer (Fremont Biosolutions, Catalog # STB-K02). After 1 h, the reaction mixture from above was diluted 10 fold in assay buffer to make 5 nM BTK: 1 nM Eu-Streptavidin complex (donor fluorophore). […] of a mixture of 0.11 nM BTK-Eu and 0.11 nM Kinase Tracer 178 (Invitrogen, Catalog # PV5593,) with BTK-Eu alone as no negative control, was then dispensed into 384-well flat bottom plates (Greiner, 784076). Compounds to be tested in assay were prepared as 10× concentrations and serial dilution in half-log increments was performed in DMSO so as to generate 10 point curves. To initiate the FRET reaction, compounds prepared as 10× stock in DMSO was added to the plates and the plates were incubated 18-24 h at 14° C.
After the incubation the plates were read on a BMG Pherastar Fluorescent plate reader (or equivalent) and used to measure the emission energy from the europium donor fluorophore (620 nm emission) and the FRET (665 nm emission). The negative control well values were averaged to obtain the mean minimum. The positive “no inhibitor” control wells were averaged to obtain the mean maximum. Percent of maximal FRET was calculated using following equation:
% max FRET=100×[(FSRcmpd−FSRmean min)/(FSRmean max−FSRmean min)]
where FSR=FRET Signal ratio. % Max FRET curves were plotted in Activity Base (Excel) and the IC50(%), hill slope, z′ and % CV were determined. The mean IC50 and standard deviation will be derived from duplicate curves (singlet inhibition curves from two independent dilutions) using Microsoft Excel.

B cells in human blood = test: Inhibition of B cell activation in whole blood measured by CD69 expression; assay type: cell-based; conditions: anti-IgM stimulation, 20 hours, CD69-positive cells that are also CD20-positive, read-out: HWB IC50
Description: A procedure to test the ability of Btk inhibitors to suppress B cell receptor-mediated activation of B cells in human blood is as follows:
Human whole blood (HWB) is obtained from healthy volunteers, with the following restrictions: 24 hr drug-free, non-smokers. Blood is collected by venipuncture into Vacutainer tubes anticoagulated with sodium heparin. Test compounds are diluted to ten times the desired starting drug concentration in PBS (20×), followed by three-fold serial dilutions in 10% DMSO in PBS to produce a nine point dose-response curve. 5.5 μl of each compound dilution is added in duplicate to a 2 ml 96-well V bottom plate (Analytical Sales and Services, #59623-23); 5.5 μl of 10% DMSO in PBS is added to control and no-stimulus wells. HWB (100 μl) is added to each well, and after mixing the plates are incubated at 37 C, 5% CO2, 100% humidity for 30 minutes. Goat F(ab′)2 anti-human IgM (Southern Biotech, #2022-14) (10 μl of a 500 μg/ml solution, 50 μg/ml final concentration) is added to each well (except the no-stimulus wells) with mixing and the plates are incubated for an additional 20 hours.
At the end of the 20 hour incubation, samples are incubated with florescent-probe-labeled anti-bodies (15 μl PE Mouse anti-Human CD20, BD Pharmingen, #555623, and/or 20 ul APC Mouse anti-Human CD69, BD Pharmingen #555533) for 30 minutes, at 37 C, 5% CO2, 100% humidity. Included are induced control, unstained and single stains for compensation adjustments and initial voltage settings. Samples are then lysed with 1 ml of 1× Pharmingen Lyse Buffer (BD Pharmingen #555899), and plates are centrifuged at 1800 rpm for 5 minutes. Supernatants are removed via suction and the remaining pellets are lysed again with another 1 ml of 1× Pharmingen Lyse Buffer, and plates are spun down as before. Supernatants are aspirated and remaining pellets are washed in FACs buffer (PBS+1% FBS). After a final spin, the supernantants are removed and pellets are resuspended in 180 μl of FACs buffer. Samples are transferred to a 96 well plate suitable to be run on the HTS 96 well system on the BD LSR II flow cytometer.
Using appropriate excitation and emission wavelengths for the fluorophores used, data are acquired and percent positive cell values are obtained using Cell Quest Software. Results are initially analyzed by FACS analysis software (Flow Jo). […] The IC50 values are calculated using XLfit software version 3, equation 201.

Sequence of Bruton's Tyrosine Kinase (Q06187 whole entry): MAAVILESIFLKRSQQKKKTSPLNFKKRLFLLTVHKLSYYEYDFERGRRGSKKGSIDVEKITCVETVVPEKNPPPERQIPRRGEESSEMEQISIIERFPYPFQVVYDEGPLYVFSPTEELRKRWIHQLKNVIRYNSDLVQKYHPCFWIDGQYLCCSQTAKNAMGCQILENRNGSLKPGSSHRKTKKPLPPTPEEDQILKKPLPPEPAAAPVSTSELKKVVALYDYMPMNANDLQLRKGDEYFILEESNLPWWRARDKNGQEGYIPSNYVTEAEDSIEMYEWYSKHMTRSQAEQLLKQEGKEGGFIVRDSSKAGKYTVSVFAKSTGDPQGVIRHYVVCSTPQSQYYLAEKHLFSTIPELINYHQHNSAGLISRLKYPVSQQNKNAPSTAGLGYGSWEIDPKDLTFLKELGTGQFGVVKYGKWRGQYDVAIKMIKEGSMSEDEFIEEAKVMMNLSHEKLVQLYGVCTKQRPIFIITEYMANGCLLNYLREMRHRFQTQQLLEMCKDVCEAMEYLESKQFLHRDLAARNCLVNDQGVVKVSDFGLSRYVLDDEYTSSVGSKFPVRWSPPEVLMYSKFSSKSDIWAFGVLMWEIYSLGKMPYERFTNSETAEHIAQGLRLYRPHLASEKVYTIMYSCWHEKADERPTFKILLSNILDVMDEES

IC50 (Bruton's Tyrosine Kinase) | IC50 (B cells in human blood) | Compound
0.0002 µM | 0.076 µM | Cn1cc(-c2cc3c(-c4ccc(CNC(=O)c5cc(C(C)(C)C)on5)c(F)c4)ncnc3[nH]2)cn1 [Compound I-34, 5-tert-Butyl-isoxazole-3-carboxylic acid 2-fluoro-4-[6-(1-methyl-1H-pyrazol-4-yl)-7H-pyrrolo[2,3-d]pyrimidin-4-yl]-benzylamide]
0.098 µM | 16.2 µM | CNC(=O)c1cc2c(-c3ccc(CNC(=O)c4ccc(C(C)(C)C)cc4)c(F)c3)ncnc2[nH]1 [Compound I-17, 4-{4-[(4-tert-Butyl-benzoylamino)-methyl]-3-fluoro-phenyl}-7H-pyrrolo[2,3-d]pyrimidine-6-carboxylic acid methylamide]
0.003 µM | 0.47 µM | Cc1ccc(C(=O)NCc2ccc(-c3ncnc4[nH]c(-c5cnn(C)c5)cc34)cc2F)s1 [Compound I-29, 5-Methyl-thiophene-2-carboxylic acid 2-fluoro-4-[6-(1-methyl-1H-pyrazol-4-yl)-7H-pyrrolo[2,3-d]pyrimidin-4-yl]-benzylamide]
0.001 µM | 0.608 µM | Cn1cc(-c2cc3c(-c4ccc(CNC(=O)c5cc6c(s5)CCCC6)cc4)ncnc3[nH]2)cn1 [Compound I-26, 4,5,6,7-Tetrahydro-benzo[b]thiophene-2-carboxylic acid 4-[6-(1-methyl-1H-pyrazol-4-yl)-7H-pyrrolo[2,3-d]pyrimidin-4-yl]-benzylamide]
0.004 µM | 6.74 µM | Cn1cc(-c2cc3c(-c4ccc(CNC(=O)c5ccc(C(C)(C)C#N)cc5)c(F)c4)ncnc3[nH]2)cn1 [Compound I-36, 4-(Cyano-dimethyl-methyl)-N-{2-fluoro-4-[6-(1-methyl-1H-pyrazol-4-yl)-7H-pyrrolo[2,3-d]pyrimidin-4-yl]-benzyl}-benzamide]
0.062 µM | 3 µM | Cn1cc(-c2cc3c(N4CCC(CNC(=O)c5ccc(C(C)(C)C)cc5)CC4)ncnc3[nH]2)cn1 [Compound I-20, 4-tert-Butyl-N-{1-[6-(1-methyl-1H-pyrazol-4-yl)-7H-pyrrolo[2,3-d]pyrimidin-4-yl]-piperidin-4-ylmethyl}-benzamide]
0.007 µM | 1.4 µM | Cn1cc(-c2cc3c(-c4ccc(CNC(=O)c5ccc(C(C)(C)C)cc5)cc4)ncnc3[nH]2)cn1 [Compound I-21, 4-tert-Butyl-N-{4-[6-(1-methyl-1H-pyrazol-4-yl)-7H-pyrrolo[2,3-d]pyrimidin-4-yl]-benzyl}-benzamide]
0.008 µM | 5.5 µM | Cn1cc(-c2cc3c(-c4ccc(CNC(=O)c5ccc(C6(C)COC6)cc5)c(F)c4)ncnc3[nH]2)cn1 [Compound I-35, N-{2-Fluoro-4-[6-(1-methyl-1H-pyrazol-4-yl)-7H-pyrrolo[2,3-d]pyrimidin-4-yl]-benzyl}-4-(3-methyl-oxetan-3-yl)-benzamide]
0.001 µM | > 50 µM | CC(C)(C)c1ccc(C(=O)NCc2ccc(-c3ncnc4[nH]c(-c5cnn(CC(=O)O)c5)cc34)cc2F)cc1 [Compound I-46, [4-(4-{4-[(4-tert-Butyl-benzoylamino)-methyl]-3-fluoro-phenyl}-7H-pyrrolo[2,3-d]pyrimidin-6-yl)-pyrazol-1-yl]-acetic acid]
0.001 µM | 0.129 µM | Cn1cc(-c2cc3c(-c4ccc(CN5Cc6cc(C(C)(C)C)sc6C5=O)c(F)c4)ncnc3[nH]2)cn1 [Compound I-33, 2-tert-Butyl-5-{2-fluoro-4-[6-(1-methyl-1H-pyrazol-4-yl)-7H-pyrrolo[2,3-d]pyrimidin-4-yl]-benzyl}-4,5-dihydro-thieno[2,3-c]pyrrol-6-one]
0.0007 µM | 1.04 µM | CC(C)(C)c1ccc(C(=O)NCc2ccc(-c3ncnc4[nH]c(-c5cnn(CCO)c5)cc34)cc2F)cc1 [Compound I-30, 4-tert-Butyl-N-(2-fluoro-4-{6-[1-(2-hydroxy-ethyl)-1H-pyrazol-4-yl]-7H-pyrrolo[2,3-d]pyrimidin-4-yl}-benzyl)-benzamide]
0.002 µM | 0.812 µM | Cn1cc(-c2cc3c(-c4ccc(CNC(=O)c5ccc(C(C)(C)C)cc5)c(F)c4)ncnc3[nH]2)cn1 [Compound I-27, 4-tert-Butyl-N-{2-fluoro-4-[6-(1-methyl-1H-pyrazol-4-yl)-7H-pyrrolo[2,3-d]pyrimidin-4-yl]-benzyl}-benzamide]
0.003 µM | 3.27 µM | Cn1cc(-c2cc3c(-c4ccc(CNC(=O)c5ccc(C(C)(C)O)cc5)c(F)c4)ncnc3[nH]2)cn1 [Compound I-38, N-{2-Fluoro-4-[6-(1-methyl-1H-pyrazol-4-yl)-7H-pyrrolo[2,3-d]pyrimidin-4-yl]-benzyl}-4-(1-hydroxy-1-methyl-ethyl)-benzamide]
0.004 µM | 2.54 µM | Cn1cc(-c2cc3c(-c4ccc(CNC(=O)c5ccc(C(C)(C)C)nc5)c(F)c4)ncnc3[nH]2)cn1 [Compound I-28, 6-tert-Butyl-N-{2-fluoro-4-[6-(1-methyl-1H-pyrazol-4-yl)-7H-pyrrolo[2,3-d]pyrimidin-4-yl]-benzyl}-nicotinamide]
0.02 µM | 6.05 µM | CN(Cc1ccc(-c2ncnc3[nH]c(-c4cnn(C)c4)cc23)cc1F)C(=O)c1ccc(C(C)(C)C)cc1 [Compound I-31, 4-tert-Butyl-N-{2-fluoro-4-[6-(1-methyl-1H-pyrazol-4-yl)-7H-pyrrolo[2,3-d]pyrimidin-4-yl]-benzyl}-N-methyl-benzamide]
0.044 µM | 28.9 µM | Cn1cc(-c2cc3c(-c4ccc(CNC(=O)c5ccc(C6(C)COC6)cc5)cc4)ncnc3[nH]2)cn1 [Compound I-25, 4-(3-Methyl-oxetan-3-yl)-N-{4-[6-(1-methyl-1H-pyrazol-4-yl)-7H-pyrrolo[2,3-d]pyrimidin-4-yl]-benzyl}-benzamide]
0.007 µM | 1.4 µM | CC(C)c1ccc(C(=O)NCc2ccc(-c3ncnc4[nH]c(-c5cnn(C)c5)cc34)cc2)cc1 [Compound I-23, 4-Isopropyl-N-{4-[6-(1-methyl-1H-pyrazol-4-yl)-7H-pyrrolo[2,3-d]pyrimidin-4-yl]-benzyl}-benzamide]

Compound | IC50 (Bruton's Tyrosine Kinase) | IC50 (B cells in human blood)
CN(C)CCn1cc(-c2cc3c(-c4ccc(CNC(=O)N5CC(OC(C)(C)C)C5)c(F)c4)ncnc3[nH]2)cn1 [Compound I-43, 3-tert-Butoxy-azetidine-1-carboxylic acid 4-{6-[1-(2-dimethylamino-ethyl)-1H-pyrazol-4-yl]-7H-pyrrolo[2,3-d]pyrimidin-4-yl}-2-fluoro-benzylamide] | 0.0006 µM | 0.276 µM
Cn1cc(-c2cc3c(-c4ccc(CNC(=O)N5CC(OC(C)(C)C)C5)c(F)c4)ncnc3[nH]2)cn1 [Compound I-40, 3-tert-Butoxy-azetidine-1-carboxylic acid 2-fluoro-4-[6-(1-methyl-1H-pyrazol-4-yl)-7H-pyrrolo[2,3-d]pyrimidin-4-yl]-benzylamide] | 0.0006 µM | 0.052 µM
